The record followed here is patent US20240383908A1, “SYNTHESIS AND APPLICATION OF PHOSPHATASE DEGRADER” (HINOVA PHARMACEUTICALS INC., priority 2021, published 2024).

What all share (type): cell-based
One test deals with KYSE 520. The test is described as follows: Inhibition of cell proliferation, KYSE 520 (CCK-8). The following applies: Homo sapiens, KYSE 520 cells, read-out: Inhibition activity on the proliferation of different cell lines KYSE 520 (IC50). As to the method: (§1) (1) MV-411 cells were cultured in the cell culture medium, and then well-growing cells were selected and inoculated in a 96-well plate at 80 μL/well, with 2×10^4 cells/well. The plate was incubated overnight in a 5% CO2 cell incubator at 37° C.
(§2) (2) 10 mM storage solution of each drug was prepared using dimethylsulfoxide (DMSO). The stock solution was diluted in a ratio of 1:3 with DMSO before use, and then the solution was serially diluted in a ratio of 1:3, to obtain 9 gradient concentrations. Each concentration was further diluted with the medium in a ratio of 1:200 (to ensure that the DMSO concentration in the culture system was 0.1%). Two wells were set for each concentration. 20 μL of each compound solution was added to the cell culture well (with a final concentration of 10 μM, 3.3 μM, 1.1 μM . . . ). The plate was gently shaken and mixed. Additionally, 3 negative control wells (only containing cells) and 3 blank control wells (only containing the medium) were included (6 wells were each added with 20 μL of DMSO diluted with the medium in a ratio of 1:200).
(§3) (1) After 5 days of cultivation, 10 μL of CCK-8 was added to each well, and then the plate was further cultured for 3 h at 37° C. in a 5% CO2 cell incubator.
(§4) (2) The absorbance (OD value) was measured at 450 nm with a multifunctional microplate reader. (3) The data were analyzed using the Dose-response-inhibition equation in GraphPad Prism8 software to obtain the IC50 value.
(§5) Using a similar method, the IC50 value (nM) for the inhibitory activity of the compound according to the present invention against different cell lines was obtained, and the results are shown in Table 3 (++++: IC50>5 μM; +++: 1 μM<IC50<5 μM; ++: IC50<1 μM).

The target of test [1] is T1, SHP2 protein (Homo sapiens, UniProt Q06124).
T1 sequence (Q06124 1-593): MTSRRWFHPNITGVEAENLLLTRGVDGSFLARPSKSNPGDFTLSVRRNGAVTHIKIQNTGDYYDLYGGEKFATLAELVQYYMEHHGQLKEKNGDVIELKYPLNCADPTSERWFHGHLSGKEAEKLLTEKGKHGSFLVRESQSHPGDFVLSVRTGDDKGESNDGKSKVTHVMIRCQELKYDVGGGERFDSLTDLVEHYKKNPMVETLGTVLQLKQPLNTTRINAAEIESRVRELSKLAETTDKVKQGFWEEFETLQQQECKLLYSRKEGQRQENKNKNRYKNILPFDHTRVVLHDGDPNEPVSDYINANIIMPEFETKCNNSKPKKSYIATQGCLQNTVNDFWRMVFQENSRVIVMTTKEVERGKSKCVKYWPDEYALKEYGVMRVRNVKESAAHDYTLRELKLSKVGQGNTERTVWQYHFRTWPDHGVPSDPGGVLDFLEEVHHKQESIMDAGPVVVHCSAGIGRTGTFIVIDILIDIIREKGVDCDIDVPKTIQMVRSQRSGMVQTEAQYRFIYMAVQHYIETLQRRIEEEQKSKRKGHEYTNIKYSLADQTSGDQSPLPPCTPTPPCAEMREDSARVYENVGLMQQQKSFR
In words: Degradation activity on SHP2 protein in MIA Paca-2 cells (Western blot, DC50). The arrangement: endogenous in cells; host or cells: MIA Paca-2 cells. To be noted: read-out: Degradation activity for differenct cell lines MIA Paca-2 (DC50). In a few lines: (§6)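 Cells were treated 24 h at 37 °C with compound (0.1–100 nM final, 0.1% DMSO). SHP2 was measured by Western blot with GAPDH as loading control, densitometry normalized to DMSO (100%). DC50, the concentration giving 50% degradation, came from a dose-response fit.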
In general terms: In western blotting, separated proteins are transferred to a membrane and probed.

In a further test the test system is MV-411 cell line. In words: Inhibition of cell proliferation, MV-411 (CCK-8). To be noted: Homo sapiens, MV4-11, 120 h, MV411 cells, 5 days, read-out: Inhibition activity on the proliferation of different cell lines MV411 (IC50). As to the method:
• MV-411 cell line (COBIER, CBP-60522) • FBS (GEMINI, Cat. No. 900-108) • 0.01M PBS (Biosharp, Cat. No. 162262) • IMDM (Hyclone, Cat. No. SH30228.01) • Penicillin-Streptomycin (Gibco, Cat. No. 15140122) • DMSO (Sigma, Cat. No. D5879) • Cell counting kit-8 (Signalway Antibody, Cat. No. CP002) • Centrifuge Tube, 15 ml (Excell Bio, Cat. No. CS015-0001) • Cell Culture Dish, (WHB, Cat. No. CS016-0128) • 96-well cell culture cluster (Corning, Cat. No. 3599)
• (1) Cell culture medium: IMDM medium+10% FBS+1% Pen Strep; • (2) PBS buffer: PBS powder was dissolved in 2 L of ultrapure water and sterilized;
as §1, §2, §3, §4

The target of test [2] is T1, SHP2 protein. The test is described as follows: Degradation activity on SHP2 protein in NCI-H358 cells (Western blot, DC50). Also on record: endogenous in cells. The following applies: read-out: Degradation activity for differenct cell lines NCI-H358 (DC50). In a few lines:
as §6

The test system of the next test is NCI-H1975. The test is described as follows: Inhibition of cell proliferation, NCI-H1975 (CCK-8). To be noted: Homo sapiens, NCI-H1975 cells, read-out: Inhibition activity on the proliferation of different cell lines NCI-H1975 (IC50). The protocol:
as §1, §2, §3, §4, §5

Counter-ions that a name gives are not always drawn.

As a reminder, the DC50 is the midpoint of the concentration-degradation curve.

Regarding `Cc1cc(N2CCC(N3CC=C(c4ccc(C(=O)NCc5ccc6c(c5)CN(C5CCC(=O)NC5=O)C6=O)nc4)CC3)CC2)ccc1C(=O)Nc1cccc(Sc2cnc(N3CCC(C)(N)CC3)cn2)c1` (stereo not shown) [Compound 421], the results for the IC50 in the test with KYSE 520 and with MV-411 cell line were 1 to 5 µM and under 1 µM, respectively. The DC50 on SHP2 protein [1] and on SHP2 protein [2] was under 0.1 µM in each case.
On to `C[C@@H]1OCC2(CCN(c3cnc(Sc4cccc(NC(=O)c5ccc(N6CCC(N7CC=C(c8ccc(C(=O)NCc9ccc%10c(c9)CN(C9CCC(=O)NC9=O)C%10=O)c(F)c8)CC7)CC6)c(F)c5)c4)cn3)CC2)[C@@H]1N` (stereo partly shown) [Compound 482], for which the DC50 on SHP2 protein [1] was under 0.1 µM. Also, the IC50 in the test with NCI-H1975 was under 1 µM.
`Cc1cc(C(=O)Nc2cccc(Sc3cnc(N4CCC(C)(N)CC4)cn3)c2)ccc1N1CCC(N2CC=C(c3ccc(C(=O)NCc4ccc5c(c4)CN(C4CCC(=O)NC4=O)C5=O)nc3)CC2)CC1` (stereo not shown) [Compound 422]: the figures for the IC50 in the test with KYSE 520 and in the test with MV-411 cell line were over 5 µM and 1 to 5 µM, respectively. For the same molecule, the DC50 on SHP2 protein [1] and on SHP2 protein [2] was under 0.1 µM each time.
`C[C@@H]1OCC2(CCN(c3cnc(Sc4cccc(NCc5ccc(N6CCC(N7CC=C(c8ccc(C(=O)NCc9ccc%10c(c9)CN(C9CCC(=O)NC9=O)C%10=O)nc8)CC7)CC6)c(F)c5)c4)cn3)CC2)[C@@H]1N` (stereo partly shown) [Compound 485]: the DC50 at SHP2 protein [1] is under 0.1 µM. The IC50 in the test on NCI-H1975 was under 1 µM.
In the same order, the values of `CC1(N)CCN(c2cnc(Sc3cccc(NC(=O)c4ccc(N5CCC(N6CC=C(c7ccc(C(=O)NCc8ccc9c(c8)CN(C8CCC(=O)NC8=O)C9=O)nc7)CC6)C5)cc4)c3)cn2)CC1` (stereo not shown) [Compound 403] are under 0.1 µM and 1 to 5 µM.
For the molecule `C[C@@H]1OCC2(CCN(c3cnc(Sc4cccc(NC(=O)c5ccc(N6CCC(N7CCN(c8ccc(C(=O)NCc9ccc%10c(c9)CN(C9CCC(=O)NC9=O)C%10=O)c(F)c8)CC7)CC6)c(F)c5)c4)cn3)CC2)[C@@H]1N` (stereo partly shown) [Compound 501, hydrochloride], the IC50 is 1 to 5 µM in the test with KYSE 520, under 1 µM in the test with MV-411 cell line and 1 to 5 µM in the test with NCI-H1975. Also, at SHP2 protein [1], the DC50 is under 0.1 µM.
Regarding `C[C@@H]1OCC2(CCN(c3cnc(Sc4cccc(NC(=O)c5ccc(N6CCC(N7CC=C(c8ccc(C(=O)NCc9ccc%10c(c9)CN(C9CCC(=O)NC9=O)C%10=O)nc8)CC7)CC6)c(F)c5)c4)cn3)CC2)[C@@H]1N` (stereo partly shown) [Compound 412], the IC50 in the test with KYSE 520 was 1 to 5 µM; in the test on MV-411 cell line it was 1 to 5 µM; with NCI-H1975, under 1 µM. Also, the DC50 on SHP2 protein [1] was under 0.1 µM.
